What all share (assay type): in vivo
Test [1] has as its system Alopecurus myosuroides (ALOMY). Kind of test: Pre-emergence biological efficacy, glasshouse pot test. The conditions noted are these: 312 h, pre-emergence, 1,000 g/ha, evaluated after 13 days (100=total damage; 0=no damage), read-out: Percentage damage ALOMY. In outline: (§1)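 Seeds sown in standard soil in pots, held one day in glasshouse (24/16 °C day/night, 14 h light, 65% humidity), then sprayed with aqueous solution from acetone/water (50:50) formulation with 0.5% Tween 20 at 1000 or 250 g/ha. Damage scored after 13 days (0 = none, 100 = total).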

In test [2] the test system is Amaranthus retoflexus (AMARE). The test is described as above. The conditions noted are these: Amaranthus retroflexus, 312 h; pre-emergence, 1,000 g/ha, evaluated after 13 days (100=total damage; 0=no damage); read-out: Percentage damage AMARE. Put shortly:
as §1

Test [3] concerns Echinochloa crus-galli (ECHCG). Described as above. The conditions noted are these: 312 h, pre-emergence, 1,000 g/ha, evaluated after 13 days (100=total damage; 0=no damage), read-out: Percentage damage ECHCG. Put shortly: as §1
Test [4] concerns Ipomea hederaceae (IPOHE). The test is described as above. The settings on record: Ipomoea hederacea, 312 h; pre-emergence, 1,000 g/ha, evaluated after 13 days (100=total damage; 0=no damage); read-out: Percentage damage IPOHE. In outline:
as §1

Test [5] concerns Setaria faberi (SETFA). Described as above. The conditions noted are these: 312 h, pre-emergence, 1,000 g/ha, evaluated after 13 days (100=total damage; 0=no damage), read-out: Percentage damage SETFA. Put shortly: as §1
Test [6] deals with Solanum nigrum (SOLNI). The test is described as above. The conditions noted are these: 312 h, pre-emergence, 1,000 g/ha, evaluated after 13 days (100=total damage; 0=no damage), read-out: Percentage damage SOLNI. In outline:
as §1

In test [7] the test system is Alopecurus myosuroides (ALOMY). Kind of test: Post-emergence biological efficacy, glasshouse pot test. The settings on record: 312 h, post-emergence, 1,000 g/ha, evaluated after 13 days (100=total damage; 0=no damage), read-out: Percentage damage caused to weed species, ALOMY. In outline: (§2)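 Plants were sown in standard soil and grown 8 days in a glasshouse (24/16° C. day/night, 14 hours light, 65% humidity), then sprayed post-emergence at 1000 or 250 g/ha from acetone/water (50:50) with 0.5% Tween 20. Damage was scored visually after 13 days (0 = none, 100 = total).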

Test [8] has as its system Amaranthus retoflexus (AMARE). The test is described as above. The conditions noted are these: Amaranthus retroflexus, 312 h; post-emergence, 1,000 g/ha, evaluated after 13 days (100=total damage; 0=no damage); read-out: Percentage damage caused to weed species, AMARE. In outline: as §2
Test [9] relates to Echinochloa crus-galli (ECHCG). Described as above. The settings on record: 312 h, post-emergence, 1,000 g/ha, evaluated after 13 days (100=total damage; 0=no damage), read-out: Percentage damage caused to weed species, ECHCG. Put shortly:
as §2

For test [10], the system named is Ipomea hederaceae (IPOHE). The test is described as above. The settings on record: Ipomoea hederacea, 312 h; post-emergence, 1,000 g/ha, evaluated after 13 days (100=total damage; 0=no damage); read-out: Percentage damage caused to weed species, IPOHE. In outline:
as §2

Test [11] deals with Setaria faberi (SETFA). The description is as above. The conditions noted are these: 312 h, post-emergence, 1,000 g/ha, evaluated after 13 days (100=total damage; 0=no damage), read-out: Percentage damage caused to weed species, SETFA. Put shortly: as §2
For test [12], the system named is Solanum nigrum (SOLNI). The description is as above. The conditions noted are these: 312 h, post-emergence, 1,000 g/ha, evaluated after 13 days (100=total damage; 0=no damage), read-out: Percentage damage caused to weed species, SOLNI. In outline: as §2

Molecules are shown by their SMILES.

In the case of `COC(=O)c1nc(C2CC2)nc(NC(c2ccccc2)c2ccc(Cl)cc2)c1Cl` (stereo not drawn) [Compound 4-278, 5-Chloro-4-[(4-chlorophenyl)-(phenyl)-methylamino]-2-cyclopropyl-6-methoxycarbonyl-pyrimidine], the pest or weed control at 1000 g/ha in test [1] was determined as 0%; in [2], 40%; in test [3] it was 10%; in test [4] it was 20%; in the test with Setaria faberi (SETFA) [5], 10%; with Solanum nigrum (SOLNI) [6], 10%. In addition, the pest or weed control at 1000 g/ha in test [7] came to 10%; in test [8], 90%; in test [9], 20%; in [10], 60%; in the test with Setaria faberi (SETFA) [11], 40%; with Solanum nigrum (SOLNI) [12] it was 30%.
For the compound `COC(=O)c1nc(C2CC2)nc(NC(Cc2ccccc2)c2ccccc2)c1Cl` (stereo not drawn) [Compound 4-279, 5-Chloro-2-cyclopropyl-4-(1,2-diphenylethyl-amino)-6-methoxy-carbonylpyrimidine], the pest or weed control at 1000 g/ha in [1] turned out to be 10%; in test [2], 20%; in test [3] it was 0%; in test [4] it was 60%; with Setaria faberi (SETFA) [5], 0%; with Solanum nigrum (SOLNI) [6], 70%. Further, the pest or weed control at 1000 g/ha in test [7] was found to be 10%; in test [8], 90%; in test [9] it was 0%; in [10] it was 60%; in the test with Setaria faberi (SETFA) [11] it was 40%; with Solanum nigrum (SOLNI) [12] it was 70%.
On to `COC(=O)c1nc(C2CC2)nc(NC(Cc2ccccc2)C(=O)OC)c1Cl` (stereo not drawn) [Compound 4-283, 5-Chloro-2-cyclopropyl-6-methoxycarbonyl-4-(1-methoxy-carbonyl-2-phenylethylamino)-pyrimidine], for which the pest or weed control at 1000 g/ha in [1] was 40%; in test [2], 100%; in [3], 70%; in [4] it was 100%; with Setaria faberi (SETFA) [5] it was 80%; in the test on Solanum nigrum (SOLNI) [6], 100%. Further, the pest or weed control at 1000 g/ha in test [7] was determined as 20%; in test [8], 100%; in test [9], 60%; in test [10] it was 70%; in the test on Setaria faberi (SETFA) [11], 60%; in the test with Solanum nigrum (SOLNI) [12], 80%.
On to `COC(=O)c1nc(C2CC2)nc(NC(Cc2ccc(F)cc2)C(=O)OC)c1Cl` (stereo not drawn) [Compound 4-284, 5-Chloro-2-cyclopropyl-4-[2-(4-fluorophenyl)-1-methoxycarbonyl-ethylamino]-6-methoxycarbonyl-pyrimidine], for which the pest or weed control at 1000 g/ha was 20% in test [1]; 100% in test [2]; 30% in [3]; 100% in [4]; 30% in the test on Setaria faberi (SETFA) [5]; 90% in the test on Solanum nigrum (SOLNI) [6]. Besides, the pest or weed control at 1000 g/ha in [7] was 30%; in [8], 100%; in test [9], 20%; in test [10] it was 100%; in the test on Setaria faberi (SETFA) [11] it was 40%; with Solanum nigrum (SOLNI) [12] it was 80%.

For the origin of these results see patent publication US20110086759A1, “CHEMICAL COMPOUNDS” (SYNGENTA CROP PROTECTION, INC., priority 2007, published 2011).
